Test results as given in patent US20240358668A1, “METHODS AND CO[…] AM[…] CARD[…] USING (R)-2-AMINO-3-PH[…]” (AXSOME THERAPEUTICS, INC., priority 2021, published 2024).

How the values were obtained:
[1] = 1-year open-label extension (OLE) study: weight change; type: in vivo, human
Method: (§1) A 1-year open-label extension (OLE) study was performed with 374 participants to examined whether clinically significant weight loss (≥5%) in this population had favorable effects on biomarkers of cardiovascular risk compared to no such weight loss. The study measured changes in weight and BP (parent study baseline to OLE week 40) and clinical laboratory assessments (OLE baseline to week 40) in participants with narcolepsy (n=124) or OSA (n=250) who received solriamfetol at doses of 75, 150, or 300 mg/d.
Increased prevalence of obesity has been reported in patients with narcolepsy and obstructive sleep apnea (OSA). […] We examined whether clinically significant weight loss (≥5%) in this population had favorable effects on biomarkers of cardiovascular risk compared to no such weight loss.
(§2) We evaluated changes in weight and BP (parent study baseline to OLE week 40) and clinical laboratory assessments (OLE baseline to week 40) in participants with narcolepsy (n=124) or OSA (n=250) from the OLE study.

[2] = tested on: participants with narcolepsy or OSA; assay: 1-year OLE study: blood pressure, parent study baseline to OLE week 40; type: in vivo, human; details: Weight loss <5% at Week 40
Method: as §1, §2

For `NC(=O)OC[C@H](N)Cc1ccccc1` [Solriamfetol, (R)-2-amino-3-phenylpropyl carbamate], the “participants with ≥5% weight loss” value ([1]; 1-year OLE, narcolepsy or OSA, 75 mg/d) was 4.5%, the “participants with ≥5% weight loss” value ([1]; 1-year OLE, narcolepsy or OSA, 150 mg/d) was 17.3% and the “participants with ≥5% weight loss” value ([1]; 1-year OLE, narcolepsy or OSA, 300 mg/d) was 32.4%. For the same molecule, the “participants with ≥5% weight gain” value ([1]; of 374 participants, all doses, 34 participants, week 40) was 9.1 % of total population, the “participants with ≥5% weight loss” value ([1]; of 374 participants, all doses, 96 participants, week 40) was 25.7% and the “DBP Change - Wk 40, Mean (SD)” value ([2]; 75 mg/d) was 0.2 (9.5) mmHg. The “DBP Change - Wk 40, Median” value ([2]; 75 mg/d) was 0.0 mmHg, the “DBP maximum changes from baseline to week 40: Decrease ≥10%” value (“DBP maximum changes … Decrease ≥10%” for short) ([2]; 75 mg/d) was 3 (14.3) n (%) and the “DBP maximum changes from baseline to week 40: Decrease ≥20%” value (shortened to “DBP maximum changes … Decrease ≥20%”) ([2]; 75 mg/d) was 0 n (%). For the same molecule, the “DBP maximum changes from baseline to week 40: Decrease ≥30%” value (“DBP maximum changes … Decrease ≥30%” below) ([2]; 75 mg/d) was 0 n (%), the “DBP maximum changes from baseline to week 40: Increase ≥10%” value (from here on “DBP maximum changes … Increase ≥10%”) ([2]; 75 mg/d) was 4 (19.0) n (%) and the “DBP maximum changes from baseline to week 40: Increase ≥20%” value (shortened to “DBP maximum changes … Increase ≥20%”) ([2]; 75 mg/d) was 0 n (%). For the same molecule, the “DBP maximum changes from baseline to week 40: Increase ≥30%” value (“DBP maximum changes … Increase ≥30%” below) ([2]; 75 mg/d) was 0 n (%), the “SBP Change - Wk 40, Mean (SD)” value ([2]; 75 mg/d) was −3.0 (12.3) mmHg and the “SBP Change - Wk 40, Median” value ([2]; 75 mg/d) was 0.50 mmHg. The “SBP maximum changes from baseline to week 40: Decrease ≥10%” value (from here on “SBP maximum changes … Decrease ≥10%”) ([2]; 75 mg/d) was 6 (28.6) n (%), the “SBP maximum changes from baseline to week 40: Decrease ≥20%” value (shortened to “SBP maximum changes … Decrease ≥20%”) ([2]; 75 mg/d) was 0 n (%) and the “SBP maximum changes from baseline to week 40: Decrease ≥30%” value (“SBP maximum changes … Decrease ≥30%” below) ([2]; 75 mg/d) was 0 n (%). For the same molecule, the “SBP maximum changes from baseline to week 40: Increase ≥10%” value (from here on “SBP maximum changes … Increase ≥10%”) ([2]; 75 mg/d) was 5 (23.8) n (%), the “SBP maximum changes from baseline to week 40: Increase ≥20%” value (shortened to “SBP maximum changes … Increase ≥20%”) ([2]; 75 mg/d) was 0 n (%) and the “SBP maximum changes from baseline to week 40: Increase ≥30%” value (“SBP maximum changes … Increase ≥30%” below) ([2]; 75 mg/d) was 0 n (%). For the same molecule, the “DBP Change - Wk 40, Mean (SD)” value ([2]; 150 mg/d) was 2.3 (7.9) mmHg, the “DBP Change - Wk 40, Median” value ([2]; 150 mg/d) was 2.3 mmHg and the “DBP maximum changes … Decrease ≥10%” value ([2]; 150 mg/d) was 4 (3.8) n (%). The “DBP maximum changes … Decrease ≥20%” value ([2]; 150 mg/d) was 1 (1.0) n (%), the “DBP maximum changes … Decrease ≥30%” value ([2]; 150 mg/d) was 0 n (%) and the “DBP maximum changes … Increase ≥10%” value ([2]; 150 mg/d) was 16 (15.2) n (%). For the same molecule, the “DBP maximum changes … Increase ≥20%” value ([2]; 150 mg/d) was 3 (2.9) n (%), the “DBP maximum changes … Increase ≥30%” value ([2]; 150 mg/d) was 0 n (%) and the “SBP Change - Wk 40, Mean (SD)” value ([2]; 150 mg/d) was 2.30 (12.1) mmHg. For the same molecule, the “SBP Change - Wk 40, Median” value ([2]; 150 mg/d) was 2.00 mmHg, the “SBP maximum changes … Decrease ≥10%” value ([2]; 150 mg/d) was 15 (14.3) n (%) and the “SBP maximum changes … Decrease ≥20%” value ([2]; 150 mg/d) was 4 (3.8) n (%). The “SBP maximum changes … Decrease ≥30%” value ([2]; 150 mg/d) was 0 n (%), the “SBP maximum changes … Increase ≥10%” value ([2]; 150 mg/d) was 26 (24.8) n (%) and the “SBP maximum changes … Increase ≥20%” value ([2]; 150 mg/d) was 7 (6.7) n (%). For the same molecule, the “SBP maximum changes … Increase ≥30%” value ([2]; 150 mg/d) was 2 (1.9) n (%), the “DBP Change - Wk 40, Mean (SD)” value ([2]; 300 mg/d) was 0.6 (9.1) mmHg and the “DBP Change - Wk 40, Median” value ([2]; 300 mg/d) was 1.5 mmHg. For the same molecule, the “DBP maximum changes … Decrease ≥10%” value ([2]; 300 mg/d) was 20 (13.2) n (%), the “DBP maximum changes … Decrease ≥20%” value ([2]; 300 mg/d) was 5 (3.3) n (%) and the “DBP maximum changes … Decrease ≥30%” value ([2]; 300 mg/d) was 0 n (%). For the same molecule, the “DBP maximum changes … Increase ≥10%” value ([2]; 300 mg/d) was 21 (13.8) n (%), the “DBP maximum changes … Increase ≥20%” value ([2]; 300 mg/d) was 2 (1.3) n (%) and the “DBP maximum changes … Increase ≥30%” value ([2]; 300 mg/d) was 0 n (%). For the same molecule, the “SBP Change - Wk 40, Mean (SD)” value ([2]; 300 mg/d) was −0.37 (12.7) mmHg, the “SBP Change - Wk 40, Median” value ([2]; 300 mg/d) was 0.17 mmHg and the “SBP maximum changes … Decrease ≥10%” value ([2]; 300 mg/d) was 36 (23.7) n (%). For the same molecule, the “SBP maximum changes … Decrease ≥20%” value ([2]; 300 mg/d) was 10 (6.6) n (%), the “SBP maximum changes … Decrease ≥30%” value ([2]; 300 mg/d) was 2 (1.3) n (%) and the “SBP maximum changes … Increase ≥10%” value ([2]; 300 mg/d) was 33 (21.7) n (%). For the same molecule, the “SBP maximum changes … Increase ≥20%” value ([2]; 300 mg/d) was 8 (5.3) n (%), the “SBP maximum changes … Increase ≥30%” value ([2]; 300 mg/d) was 0 n (%) and the “DBP Change - Wk 40, Median” value ([2]; all doses) was 1.4 mmHg. The “DBP maximum changes … Decrease ≥10%” value ([2]; all doses) was 27 (9.7) n (%), the “DBP maximum changes … Decrease ≥20%” value ([2]; all doses) was 6 (2.2) n (%) and the “DBP maximum changes … Decrease ≥30%” value ([2]; all doses) was 0 n (%). The “DBP maximum changes … Increase ≥10%” value ([2]; all doses) was 41 (14.7) n (%), the “DBP maximum changes … Increase ≥20%” value ([2]; all doses) was 5 (1.8) n (%) and the “DBP maximum changes … Increase ≥30%” value ([2]; all doses) was 0 n (%). For the same molecule, the “SBP Change - Wk 40, Median” value ([2]; all doses) was 0.50 mmHg, the “SBP maximum changes … Decrease ≥10%” value ([2]; all doses) was 57 (20.5) n (%) and the “SBP maximum changes … Decrease ≥20%” value ([2]; all doses) was 14 (5.0) n (%). For the same molecule, the “SBP maximum changes … Decrease ≥30%” value ([2]; all doses) was 2 (0.7) n (%), the “SBP maximum changes … Increase ≥10%” value ([2]; all doses) was 64 (23.0) n (%) and the “SBP maximum changes … Increase ≥20%” value ([2]; all doses) was 15 (5.4) n (%). The “SBP maximum changes … Increase ≥30%” value ([2]; all doses) was 2 (0.7) n (%) and the “DBP Change - Wk 40, Mean (SD)” value ([2]; all doses, listed as Solri) was 1.2 (8.7) mmHg.
